Test results taken from the NIST ThermoML archive (doi:10.1016/j.fluid.2016.01.028).
± gives the expanded uncertainty stated by the source.

Conditions: Liquid, Closed cell (Static) method

SMILES | vapor or sublimation pressure (283.15 K) | vapor or sublimation pressure (293.15 K) | vapor or sublimation pressure (303.15 K) | vapor or sublimation pressure (313.15 K) | vapor or sublimation pressure (323.15 K)
C=C(F)C(F)(F)F [2,3,3,3-tetrafluoro-1-propene] | 437.9 ± 1.2 kPa | 591.5 ± 1.3 kPa | 782.9 ± 1.5 kPa | 1018.2 ± 1.8 kPa | 1302.4 ± 2.1 kPa
FCC(F)(F)F [1,1,1,2-tetrafluoroethane] | 415.5 ± 1.2 kPa | 572.4 ± 1.3 kPa | 768.9 ± 1.5 kPa | 1015.5 ± 1.8 kPa | 1317.2 ± 2.1 kPa
CC(C)C [2-methylpropane] | 220.9 ± 1.1 kPa | 302.7 ± 1.1 kPa | 404.4 ± 1.2 kPa | 531.3 ± 1.3 kPa | 684.2 ± 1.4 kPa
